Type in all cases: biochemical
One test deals with LRRK2 (G2019S) (Homo sapiens, UniProt Q5S007, G2019S). Description: LRRK2 G2019S enzyme inhibition, ADP-Glo kinase assay. To be noted: ATP 25 μM. On the set-up: purchased SignalChem L10-12GG. Summed up:
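IC50 derived from luminescent ADP-Glo readout against untreated solvent control, twelve final compound concentrations from 50 μM downward. Reaction: recombinant human LRRK2 G2019S enzyme, 25 μM ATP, substrate, pH 7.4 Tris buffer with MgCl2/BSA/DTT, 25° C. for 2 hours.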
(ADP-Glo turns the ADP formed in a reaction into a luminescent signal.)

The target in the next test is T1, human GST-CLK1 (Homo sapiens, UniProt P49759).
T1 construct: purified human GST-CLK1 (129-end, SignalChem) enzyme; purchased SignalChem
Put plainly: GST-CLK1 enzyme inhibition, ADP-Glo kinase assay. To be noted: ATP 10 μM, GST-CLK1 129-end. Summed up: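 ADP-Glo luminescence read-out, relative to untreated solvent control, gave IC50 (nM) from triplicate data sets. Reactions ran an hour at 25° C with 3 ng GST-CLK1 (residues 129-end), 10 μM ATP and specific substrate in Tris-HCl pH 7.4 buffer with MgCl2, BSA and DTT.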

The next test concerns the target T2, human GST-DYRK1A (Homo sapiens, UniProt Q13627).
T2 construct: purified human GST-DYRK1A (full length, Thermo Scientifics) enzyme; purchased Thermo Scientifics
Description: GST-DYRK1A enzyme inhibition, ADP-Glo kinase assay. As to conditions: ATP 10 μM, GST-DYRK1A full length, read-out: DYRK1 IC50. An outline of the steps:
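Full-length enzyme (10 ng) was incubated with 10 μM ATP and a specific substrate for 1 h at 25 °C in 40 mM Tris-HCl pH 7.4, 20 mM MgCl2, 0.5 mg/mL BSA, 50 μM DTT. Luminescence was read against a solvent control, and IC50 values were derived from 3 data sets.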

The next test has as its target LRRK2 (Homo sapiens, UniProt Q5S007). Description: LRRK2 enzyme inhibition, ADP-Glo kinase assay. The arrangement: purchased Invitrogen PR8604B. As to conditions: ATP 10 μM. How it is done:
To evaluate an inhibitory activity of the compound according to the present invention against LRRK2, LRRK2 (G2019S), DYRK1, CLK1, and TTK kinases, experiments were performed as follows.
Each of the Example compounds was reacted with a purified human LRRK2 (Invitrogen #PR8604B) enzyme to evaluate an ability to inhibit an enzyme using a method as described below. A composition of 40 mM Tris-HCl (pH 7.4), 20 mM MgCl2, 0.5 mg/mL BSA, and 50 μM DTT was used as a reaction buffer, and all reactions of test substances were performed in the reaction buffer. Each of the compounds was diluted […] from a 10 mM DMSO stock using a serial dilution method, and enzyme activities were measured at final compound concentrations of 50, 10, 2, 0.4, 0.08, 0.016, 0.0032, 0.00064, 0.000128, 0.0000256, 0.00000512, and 0.000001024 μM. In the test, purified ATP (10 μM) and an enzyme substrate (0.2 μg) were reacted with a human LRRK2 (25 ng) enzyme at 25° C. for 2 hours, and the enzyme activities were determined using an in vitro ADP-Glo™ kinase assay (Promega). An enzyme-activity reaction solution, an ADP-Glo reaction solution, and an enzyme-ability detection solution were reacted at a ratio of 2:2:1 to measure a degree of inhibition of the enzyme activity with luminescence. The degree of inhibition of the enzyme activity according to the treatment concentration of each of the compounds was calculated based on the fluorescence of the enzyme activity of the solvent control which was not treated with the compound. In this case, the concentration of each of the compounds inhibiting 50% of the enzyme activity was determined to be an IC50 (nM) value, and calculated using Prism (Version 5.01; GraphPad) software.

One may read the IC50 as the concentration needed to halve the response being measured.

Chain of LRRK2 (Q5S007 970-2527 limits assumed): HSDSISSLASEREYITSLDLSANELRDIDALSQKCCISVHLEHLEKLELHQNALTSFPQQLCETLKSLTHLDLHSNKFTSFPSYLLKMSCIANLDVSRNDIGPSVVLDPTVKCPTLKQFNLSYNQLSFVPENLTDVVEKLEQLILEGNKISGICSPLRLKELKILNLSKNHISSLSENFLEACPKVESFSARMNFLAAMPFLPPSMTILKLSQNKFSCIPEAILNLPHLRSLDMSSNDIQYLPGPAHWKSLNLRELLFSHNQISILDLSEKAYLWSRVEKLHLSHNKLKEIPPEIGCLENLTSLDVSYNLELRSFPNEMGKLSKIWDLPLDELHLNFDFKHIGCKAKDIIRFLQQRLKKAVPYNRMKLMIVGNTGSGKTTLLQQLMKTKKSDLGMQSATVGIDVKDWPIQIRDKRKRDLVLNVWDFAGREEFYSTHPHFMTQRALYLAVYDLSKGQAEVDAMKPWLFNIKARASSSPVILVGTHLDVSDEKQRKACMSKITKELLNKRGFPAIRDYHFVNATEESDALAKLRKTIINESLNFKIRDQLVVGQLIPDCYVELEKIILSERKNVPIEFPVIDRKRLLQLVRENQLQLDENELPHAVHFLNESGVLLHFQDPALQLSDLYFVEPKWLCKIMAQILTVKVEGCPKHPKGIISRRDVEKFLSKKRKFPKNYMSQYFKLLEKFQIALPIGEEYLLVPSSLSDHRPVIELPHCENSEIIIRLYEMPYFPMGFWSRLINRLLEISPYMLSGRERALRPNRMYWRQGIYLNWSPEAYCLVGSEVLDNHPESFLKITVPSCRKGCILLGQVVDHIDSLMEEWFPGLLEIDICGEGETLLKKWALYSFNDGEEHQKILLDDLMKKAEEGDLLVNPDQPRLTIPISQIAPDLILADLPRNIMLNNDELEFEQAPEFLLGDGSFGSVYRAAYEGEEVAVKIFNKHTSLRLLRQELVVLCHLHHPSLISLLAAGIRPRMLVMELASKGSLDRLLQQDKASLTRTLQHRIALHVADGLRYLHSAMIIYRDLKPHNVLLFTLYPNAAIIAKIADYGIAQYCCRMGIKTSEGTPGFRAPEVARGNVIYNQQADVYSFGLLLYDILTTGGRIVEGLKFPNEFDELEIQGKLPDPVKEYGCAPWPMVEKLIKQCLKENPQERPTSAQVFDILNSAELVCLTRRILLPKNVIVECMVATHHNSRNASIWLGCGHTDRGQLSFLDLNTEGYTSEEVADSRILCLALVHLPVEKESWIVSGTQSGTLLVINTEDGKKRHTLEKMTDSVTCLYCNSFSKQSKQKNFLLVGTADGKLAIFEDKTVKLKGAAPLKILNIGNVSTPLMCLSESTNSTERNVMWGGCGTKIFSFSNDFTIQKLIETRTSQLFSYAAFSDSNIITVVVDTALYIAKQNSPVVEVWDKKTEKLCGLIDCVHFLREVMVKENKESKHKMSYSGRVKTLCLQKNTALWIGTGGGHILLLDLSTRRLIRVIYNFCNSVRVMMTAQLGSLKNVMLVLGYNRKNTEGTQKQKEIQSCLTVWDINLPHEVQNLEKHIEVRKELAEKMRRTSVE
T1 sequence (P49759 129-484 limits assumed): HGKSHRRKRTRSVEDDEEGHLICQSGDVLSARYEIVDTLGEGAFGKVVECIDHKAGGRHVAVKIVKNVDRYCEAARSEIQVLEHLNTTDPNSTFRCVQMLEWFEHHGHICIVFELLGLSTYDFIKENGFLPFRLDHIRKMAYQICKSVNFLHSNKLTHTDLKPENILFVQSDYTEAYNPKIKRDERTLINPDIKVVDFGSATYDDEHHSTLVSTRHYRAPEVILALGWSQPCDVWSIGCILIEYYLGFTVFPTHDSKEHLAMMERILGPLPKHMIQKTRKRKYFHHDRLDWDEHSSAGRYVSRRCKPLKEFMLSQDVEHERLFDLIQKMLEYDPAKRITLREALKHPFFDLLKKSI
Chain of LRRK2 (G2019S) (Q5S007 970-2527 G2019S limits assumed): as the sequence (Q5S007 970-2527 limits assumed) above, with G1050S counted along it

As to `CCCNc1nc(Nc2ccc(S(C)(=O)=O)cc2OC)nc2[nH]cc(C#N)c12` [Example 99, 2-((2-methoxy-4-(methylsulfonyl)phenyl)amino)-4-(propylamino)-7H-pyrrolo[2,3-d]pyrimidine-5-carbonitrile], the IC50 was 101 to 300 nM against LRRK2 (G2019S), 301 to 1000 nM against human GST-CLK1, 301 to 1000 nM on human GST-DYRK1A and less than 100 nM against LRRK2.

Take `COc1cc(S(C)(=O)=O)ccc1Nc1nc(NC(C)C)c2c(C#N)c[nH]c2n1` [Example 101, 4-(isopropylamino)-2-((2-methoxy-4-(methylsulfonyl)phenyl)amino)-7H-pyrrolo[2,3-d]pyrimidine-5-carbonitrile]: the IC50 at LRRK2 (G2019S) is less than 100 nM; against human GST-CLK1, 301 to 1000 nM; on human GST-DYRK1A, 301 to 1000 nM; against LRRK2, less than 100 nM.

Consider `COCCNc1nc(Nc2ccc(S(C)(=O)=O)cc2OC)nc2[nH]cc(C#N)c12` [Example 103, 2-((2-methoxy-4-(methylsulfonyl)phenyl)amino)-4-((2-methoxyethyl)amino)-7H-pyrrolo[2,3-d]pyrimidine-5-carbonitrile], for which the 50% inhibitory concentration (IC50) against LRRK2 (G2019S) was less than 100 nM; against human GST-CLK1, 301 to 1000 nM; at human GST-DYRK1A, 301 to 1000 nM; against LRRK2, less than 100 nM.

Regarding `COc1cc(S(C)(=O)=O)ccc1Nc1nc(NC2CC2)c2c(C#N)c[nH]c2n1` [Example 104, 4-(cyclopropylamino)-2-((2-methoxy-4-(methylsulfonyl)phenyl)amino)-7H-pyrrolo[2,3-d]pyrimidine-5-carbonitrile], the half-inhibitory concentration (IC50) against LRRK2 (G2019S) was less than 100 nM; against human GST-CLK1, 101 to 300 nM; on human GST-DYRK1A, 301 to 1000 nM; at LRRK2, less than 100 nM.

Take `COc1cc(S(C)(=O)=O)ccc1Nc1nc(NC2CCC2)c2c(C#N)c[nH]c2n1` [Example 105, 4-(cyclobutylamino)-2-((2-methoxy-4-(methylsulfonyl)phenyl)amino)-7H-pyrrolo[2,3-d]pyrimidine-5-carbonitrile]: the IC50 against LRRK2 (G2019S) is less than 100 nM; against human GST-CLK1, 301 to 1000 nM; at human GST-DYRK1A it was 301 to 1000 nM; against LRRK2, less than 100 nM.

Consider `COc1cc(S(C)(=O)=O)ccc1Nc1nc(NC2CCCC2)c2c(C#N)c[nH]c2n1` [Example 106, 4-(cyclopentylamino)-2-((2-methoxy-4-(methylsulfonyl)phenyl)amino)-7H-pyrrolo[2,3-d]pyrimidine-5-carbonitrile], for which the 50% inhibitory concentration (IC50) on LRRK2 (G2019S) was less than 100 nM; on human GST-CLK1, 301 to 1000 nM; on human GST-DYRK1A it was 301 to 1000 nM; against LRRK2 it was less than 100 nM.

As to `COc1cc(S(C)(=O)=O)ccc1Nc1nc(NC2CCCCC2)c2c(C#N)c[nH]c2n1` [Example 107, 4-(cyclohexylamino)-2-((2-methoxy-4-(methylsulfonyl)phenyl)amino)-7H-pyrrolo[2,3-d]pyrimidine-5-carbonitrile], the IC50 against LRRK2 (G2019S), at human GST-CLK1, on human GST-DYRK1A and against LRRK2 was 301 to 1000 nM each time.

Regarding `CNc1nc(Nc2ccc(C(=O)N3CCOCC3)c3c2OCCO3)nc2[nH]cc(C#N)c12` [Example 118, 4-(methylamino)-2-((8-(morpholine-4-carbonyl)-2,3-dihydrobenzo[b][1,4]dioxin-5-yl)amino)-7H-pyrrolo[2,3-d]pyrimidine-5-carbonitrile], the half-maximal inhibitory concentration (IC50) was less than 100 nM against LRRK2 (G2019S), less than 100 nM on human GST-CLK1, 301 to 1000 nM at human GST-DYRK1A and less than 100 nM against LRRK2.

Turning to `CCNc1nc(Nc2ccc(C(=O)N3CCOCC3)c3c2OCCO3)nc2[nH]cc(C#N)c12` [Example 119, 4-(ethylamino)-2-((8-(morpholine-4-carbonyl)-2,3-dihydrobenzo[b][1,4]dioxin-5-yl)amino)-7H-pyrrolo[2,3-d]pyrimidine-5-carbonitrile], the half-inhibitory concentration (IC50) at LRRK2 (G2019S) was less than 100 nM; on human GST-CLK1 it was less than 100 nM; on human GST-DYRK1A, 301 to 1000 nM; against LRRK2 it was less than 100 nM.

For the molecule `CCCNc1nc(Nc2ccc(C(=O)N3CCOCC3)c3c2OCCO3)nc2[nH]cc(C#N)c12` [Example 120, 2-((8-(morpholine-4-carbonyl)-2,3-dihydrobenzo[b][1,4]dioxin-5-yl)amino)-4-(propylamino)-7H-pyrrolo[2,3-d]pyrimidine-5-carbonitrile], the IC50 is less than 100 nM at LRRK2 (G2019S), less than 100 nM against human GST-CLK1, 101 to 300 nM at human GST-DYRK1A and less than 100 nM at LRRK2.

As for `CC(C)Nc1nc(Nc2ccc(C(=O)N3CCOCC3)c3c2OCCO3)nc2[nH]cc(C#N)c12` [Example 122, 4-(isopropylamino)-2-((8-(morpholine-4-carbonyl)-2,3-dihydrobenzo[b][1,4]dioxin-5-yl)amino)-7H-pyrrolo[2,3-d]pyrimidine-5-carbonitrile], the IC50 on LRRK2 (G2019S) is less than 100 nM; on human GST-CLK1, less than 100 nM; at human GST-DYRK1A it was 101 to 300 nM; at LRRK2 it was less than 100 nM.

For `COCCNc1nc(Nc2ccc(C(=O)N3CCOCC3)c3c2OCCO3)nc2[nH]cc(C#N)c12` [Example 123, 4-((2-methoxyethyl)amino)-2-((8-(morpholine-4-carbonyl)-2,3-dihydrobenzo[b][1,4]dioxin-5-yl)amino)-7H-pyrrolo[2,3-d]pyrimidine-5-carbonitrile], the IC50 on LRRK2 (G2019S) is less than 100 nM; at human GST-CLK1, less than 100 nM; at human GST-DYRK1A, 101 to 300 nM; against LRRK2, less than 100 nM.

On to `N#Cc1c[nH]c2nc(Nc3ccc(C(=O)N4CCOCC4)c4c3OCCO4)nc(NC3CC3)c12` [Example 124, 4-(cyclopropylamino)-2-((8-(morpholine-4-carbonyl)-2,3-dihydrobenzo[b][1,4]dioxin-5-yl)amino)-7H-pyrrolo[2,3-d]pyrimidine-5-carbonitrile], for which the concentration for half-maximal inhibition (IC50) against LRRK2 (G2019S) is less than 100 nM; against human GST-CLK1, 101 to 300 nM; at human GST-DYRK1A, 101 to 300 nM; on LRRK2 it was less than 100 nM.

On to `N#Cc1c[nH]c2nc(Nc3ccc(C(=O)N4CCOCC4)c4c3OCCO4)nc(NC3CCC3)c12` [Example 125, 4-(cyclobutylamino)-2-((8-(morpholine-4-carbonyl)-2,3-dihydrobenzo[b][1,4]dioxin-5-yl)amino)-7H-pyrrolo[2,3-d]pyrimidine-5-carbonitrile], for which the IC50 was less than 100 nM against LRRK2 (G2019S), 101 to 300 nM on human GST-CLK1, 301 to 1000 nM at human GST-DYRK1A and less than 100 nM against LRRK2.

In the case of `N#Cc1c[nH]c2nc(Nc3ccc(C(=O)N4CCOCC4)c4c3OCCO4)nc(NCC3CC3)c12` [Example 130, 4-((cyclopropylmethyl)amino)-2-((8-(morpholine-4-carbonyl)-2,3-dihydrobenzo[b][1,4]dioxin-5-yl)amino)-7H-pyrrolo[2,3-d]pyrimidine-5-carbonitrile], the IC50 was less than 100 nM on LRRK2 (G2019S), 301 to 1000 nM against human GST-CLK1, 301 to 1000 nM at human GST-DYRK1A and less than 100 nM against LRRK2.

With `CCCCNc1nc(Nc2ccc(C(=O)N3CCOCC3)c3c2OCCO3)nc2[nH]cc(C#N)c12` [Example 134, 4-(butylamino)-2-((8-(morpholine-4-carbonyl)-2,3-dihydrobenzo[b][1,4]dioxin-5-yl)amino)-7H-pyrrolo[2,3-d]pyrimidine-5-carbonitrile], the IC50 was less than 100 nM against LRRK2 (G2019S), 301 to 1000 nM on human GST-CLK1, 301 to 1000 nM on human GST-DYRK1A and less than 100 nM on LRRK2.

With `N#Cc1c[nH]c2nc(Nc3ccc(C(=O)N4CCOCC4)c4c3OCCO4)nc(NC3COC3)c12` [Example 135, 2-((8-(morpholine-4-carbonyl)-2,3-dihydrobenzo[b][1,4]dioxin-5-yl)amino)-4-(oxetan-3-ylamino)-7H-pyrrolo[2,3-d]pyrimdine-5-carbonitrile], the IC50 on LRRK2 (G2019S), against human GST-CLK1, on human GST-DYRK1A and on LRRK2 was 301 to 1000 nM throughout.
